Measured values as given in ChEMBL document CHEMBL3885861, “Open TG-GATES”.

Species: Rattus norvegicus
Assay: Open TG-GATES - Regimen: Single
Type: toxicity, organism-based, Sprague-Dawley
Design: regimen Single, gender Male, age 6 weeks
Settings: in vivo, po, 0 mg/kg, route gavage, dose level Control; for APTT / Bas / Eos / Fbg / Ht / MCH / MCHC / MCV / Mono / PT / Plat / RBC / Ret / WBC: tissue Blood; for KIDNEY_L / KIDNEY_R / KIDNEY_TOTAL: tissue Kidney; for LIVER: tissue Liver; for ALP / AST / BUN / CRE / Ca / Cl / DBIL / GLC / IP / K / LDH / Na / PL / RALB / TBIL / TC / TG / TP / gamma-GTP: tissue Plasma

CC(=O)Nc1nnc(S(N)(=O)=O)s1 [ACETAZOLAMIDE]
TERMINAL_BW (3 h): 214.4 g
APTT (3 h): 22 s
Bas (3 h): 0%
Eos (3 h): 0.8%
Fbg (3 h): 309 mg/dL
Ht (3 h): 39.4%
MCH (3 h): 21.3 pg
MCHC (3 h): 32.9%
MCV (3 h): 64.8 fL
Mono (3 h): 2.4%
PT (3 h): 16.5 s
Plat (3 h): 118.6 x10_4/uL
RBC (3 h): 608.6 x10_4/ul
Ret (3 h): 8.8%
WBC (3 h): 89.5 x10_2/uL
KIDNEY_L (3 h): 0.9 g
KIDNEY_R (3 h): 0.9 g
KIDNEY_TOTAL (3 h): 1.9 g
LIVER (3 h): 9.8 g
ALP (3 h): 1586.4 IU/L
AST (3 h): 80.2 IU/L
BUN (3 h): 12 mg/dL
CRE (3 h): 0.2 mg/dL
Ca (3 h): 11.1 mg/dL
Cl (3 h): 106.4 meq/L
DBIL (3 h): 0 mg/dL
GLC (3 h): 187.4 mg/dL
IP (3 h): 8.2 mg/dL
K (3 h): 4 meq/L
LDH (3 h): 235.8 IU/L
Na (3 h): 143 meq/L
PL (3 h): 137.6 mg/dL
RALB (3 h): 3.1 g/dL
TBIL (3 h): 0.018 mg/dL
TC (3 h): 78 mg/dL
TG (3 h): 59.8 mg/dL
TP (3 h): 5.4 g/dL
gamma-GTP (3 h): 1 IU/L
TERMINAL_BW (6 h): 207.4 g
APTT (6 h): 22.1 s
Bas (6 h): 0%
Eos (6 h): 0.8%
Fbg (6 h): 320.2 mg/dL
Ht (6 h): 39.1%
MCH (6 h): 20.8 pg
MCV (6 h): 62.8 fL
Mono (6 h): 2%
PT (6 h): 16.5 s
Plat (6 h): 131.7 x10_4/uL
RBC (6 h): 622.4 x10_4/ul
Ret (6 h): 8.3%
WBC (6 h): 79.7 x10_2/uL
KIDNEY_L (6 h): 1 g
KIDNEY_R (6 h): 0.9 g
KIDNEY_TOTAL (6 h): 1.9 g
LIVER (6 h): 9 g
ALP (6 h): 1340.2 IU/L
AST (6 h): 63.4 IU/L
CRE (6 h): 0.1 mg/dL
Ca (6 h): 11 mg/dL
Cl (6 h): 105 meq/L
DBIL (6 h): 0 mg/dL
GLC (6 h): 186.6 mg/dL
IP (6 h): 9.4 mg/dL
K (6 h): 4.3 meq/L
LDH (6 h): 183.6 IU/L
Na (6 h): 141 meq/L
PL (6 h): 127.8 mg/dL
RALB (6 h): 3 g/dL
TBIL (6 h): 0.024 mg/dL
TC (6 h): 78 mg/dL
TG (6 h): 48.2 mg/dL
TP (6 h): 5.3 g/dL
gamma-GTP (6 h): 1.2 IU/L
TERMINAL_BW (9 h): 212.2 g
APTT (9 h): 21.9 s
Bas (9 h): 0%
Eos (9 h): 0.6%
Fbg (9 h): 293 mg/dL
Ht (9 h): 39.7%
MCH (9 h): 20.8 pg
MCHC (9 h): 32.3%
MCV (9 h): 64.3 fL
Mono (9 h): 2.2%
PT (9 h): 16.8 s
Plat (9 h): 115.3 x10_4/uL
RBC (9 h): 616.6 x10_4/ul
Ret (9 h): 8.4%
WBC (9 h): 84.8 x10_2/uL
KIDNEY_L (9 h): 1 g
KIDNEY_R (9 h): 1 g
KIDNEY_TOTAL (9 h): 1.9 g
LIVER (9 h): 8.8 g
ALP (9 h): 1423.8 IU/L
AST (9 h): 70.8 IU/L
BUN (9 h): 11 mg/dL
CRE (9 h): 0.1 mg/dL
Ca (9 h): 10.9 mg/dL
Cl (9 h): 104.8 meq/L
DBIL (9 h): 0 mg/dL
GLC (9 h): 193 mg/dL
IP (9 h): 9.3 mg/dL
K (9 h): 4.1 meq/L
LDH (9 h): 163.2 IU/L
Na (9 h): 141.6 meq/L
PL (9 h): 113.2 mg/dL
RALB (9 h): 3.1 g/dL
TBIL (9 h): 0.024 mg/dL
TC (9 h): 70.2 mg/dL
TG (9 h): 49.8 mg/dL
TP (9 h): 5.4 g/dL
gamma-GTP (9 h): 1.2 IU/L
TERMINAL_BW (24 h): 228.8 g
APTT (24 h): 20.3 s
Bas (24 h): 0%
Eos (24 h): 0.6%
Fbg (24 h): 288.8 mg/dL
Ht (24 h): 38.7%
MCH (24 h): 20.8 pg
MCHC (24 h): 33.2%
MCV (24 h): 62.9 fL
Mono (24 h): 1.6%
PT (24 h): 16.1 s
Plat (24 h): 110.7 x10_4/uL
RBC (24 h): 616.2 x10_4/ul
Ret (24 h): 7.9%
WBC (24 h): 66.7 x10_2/uL
KIDNEY_L (24 h): 1 g
KIDNEY_R (24 h): 1 g
KIDNEY_TOTAL (24 h): 2 g
LIVER (24 h): 10.7 g
ALP (24 h): 1945.2 IU/L
AST (24 h): 80.8 IU/L
BUN (24 h): 15.8 mg/dL
CRE (24 h): 0.1 mg/dL
Ca (24 h): 10.7 mg/dL
Cl (24 h): 105.8 meq/L
DBIL (24 h): 0 mg/dL
GLC (24 h): 201.2 mg/dL
IP (24 h): 7.7 mg/dL
K (24 h): 4.1 meq/L
LDH (24 h): 185.8 IU/L
Na (24 h): 141.6 meq/L
PL (24 h): 137.4 mg/dL
RALB (24 h): 3 g/dL
TBIL (24 h): 0.004 mg/dL
TC (24 h): 71.8 mg/dL
TG (24 h): 97 mg/dL
TP (24 h): 5.4 g/dL
